{"source": "paper PMC11027065", "about": "(Analytical chemistry, 2020)", "biological_target": "T1, insulin-regulated aminopeptidase (IRAP, EC 3.4.11.3) (Rattus norvegicus, UniProt P97629)", "T1 sequence (P97629 1-1025)": "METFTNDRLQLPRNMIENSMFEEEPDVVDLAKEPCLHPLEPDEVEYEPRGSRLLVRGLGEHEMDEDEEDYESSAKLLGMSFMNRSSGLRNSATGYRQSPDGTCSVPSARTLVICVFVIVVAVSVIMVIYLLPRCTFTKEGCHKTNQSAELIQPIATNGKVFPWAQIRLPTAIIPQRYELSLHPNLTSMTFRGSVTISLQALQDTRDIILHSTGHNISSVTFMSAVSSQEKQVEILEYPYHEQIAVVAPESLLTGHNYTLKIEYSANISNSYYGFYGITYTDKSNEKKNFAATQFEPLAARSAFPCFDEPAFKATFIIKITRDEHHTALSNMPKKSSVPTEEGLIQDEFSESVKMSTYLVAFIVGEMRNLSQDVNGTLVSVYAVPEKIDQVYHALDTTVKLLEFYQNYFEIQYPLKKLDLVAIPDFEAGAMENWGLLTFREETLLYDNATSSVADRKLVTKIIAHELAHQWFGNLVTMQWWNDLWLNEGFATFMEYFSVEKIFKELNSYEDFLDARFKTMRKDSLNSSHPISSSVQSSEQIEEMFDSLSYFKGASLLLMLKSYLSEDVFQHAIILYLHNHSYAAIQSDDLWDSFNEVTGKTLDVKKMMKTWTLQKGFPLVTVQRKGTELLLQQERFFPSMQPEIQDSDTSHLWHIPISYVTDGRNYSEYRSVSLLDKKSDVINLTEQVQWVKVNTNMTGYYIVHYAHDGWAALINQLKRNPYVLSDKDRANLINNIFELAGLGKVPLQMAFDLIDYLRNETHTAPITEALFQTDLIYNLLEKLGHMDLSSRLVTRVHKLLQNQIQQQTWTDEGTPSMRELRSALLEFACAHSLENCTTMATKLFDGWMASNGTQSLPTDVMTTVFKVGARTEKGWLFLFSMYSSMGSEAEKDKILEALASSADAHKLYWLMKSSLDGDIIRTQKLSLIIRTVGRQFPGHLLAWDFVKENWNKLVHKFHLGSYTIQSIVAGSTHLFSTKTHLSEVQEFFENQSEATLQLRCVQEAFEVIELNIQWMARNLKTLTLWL", "assay": "EOP-MD probe with cLC-MS2: effect of HFI-419 on LE hydrolysis in vivo", "conditions": "50 μM HFI-419; GGFL detected without inhibitor; data not shown"}
{"smiles": "CCOC(=O)C1=C(NC(C)=O)Oc2cc(O)ccc2C1c1cccnc1", "note": "(stereo not shown) [HFI-419]", "values": [{"measurement": "product GGFL in dialysate during infusion of inhibitor", "value": "undetected"}]}
